Measurements reported in publication PMC4595979 (Horticulture Research, 2015).

Legend:
LOX2:Md:2b (MdLOX2b) = biological target: T1, LOX2:Md:2b (MdLOX2b) (Malus domestica, UniProt S4ULD7); experiment: HPLC product analysis; format: biochemical; conditions: 50 mM sodium phosphate pH 7.5, 25 °C, 0.3 mM substrate
T1 sequence (S4ULD7 1-905): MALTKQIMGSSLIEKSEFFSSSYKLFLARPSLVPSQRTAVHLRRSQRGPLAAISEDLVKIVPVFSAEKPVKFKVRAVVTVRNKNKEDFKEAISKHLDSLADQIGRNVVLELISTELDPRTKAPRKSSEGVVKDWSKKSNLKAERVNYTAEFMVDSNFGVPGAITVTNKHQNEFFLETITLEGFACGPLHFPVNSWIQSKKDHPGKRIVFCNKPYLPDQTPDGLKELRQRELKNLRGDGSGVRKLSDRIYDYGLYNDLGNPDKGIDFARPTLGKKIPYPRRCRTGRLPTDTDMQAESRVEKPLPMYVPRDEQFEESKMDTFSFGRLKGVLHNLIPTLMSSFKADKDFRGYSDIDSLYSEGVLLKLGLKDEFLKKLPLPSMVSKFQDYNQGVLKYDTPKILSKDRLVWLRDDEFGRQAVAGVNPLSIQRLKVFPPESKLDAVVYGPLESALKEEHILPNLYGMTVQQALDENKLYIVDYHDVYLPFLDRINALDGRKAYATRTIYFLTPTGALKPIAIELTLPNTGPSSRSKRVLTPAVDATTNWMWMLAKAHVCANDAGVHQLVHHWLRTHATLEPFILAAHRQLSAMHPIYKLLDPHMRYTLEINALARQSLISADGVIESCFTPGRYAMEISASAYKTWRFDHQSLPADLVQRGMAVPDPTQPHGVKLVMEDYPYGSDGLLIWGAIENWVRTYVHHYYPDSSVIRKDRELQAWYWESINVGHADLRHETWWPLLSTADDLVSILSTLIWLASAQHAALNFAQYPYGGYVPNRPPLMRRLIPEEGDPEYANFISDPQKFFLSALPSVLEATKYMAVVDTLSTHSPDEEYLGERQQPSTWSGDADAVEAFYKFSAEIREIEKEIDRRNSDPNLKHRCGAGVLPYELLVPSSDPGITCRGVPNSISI

LOX2:Md:2a (MdLOX2a) = biological target: T2, LOX2:Md:2a (MdLOX2a) (Malus domestica, UniProt S4U6N9); experiment: HPLC product analysis; format: biochemical; conditions: 50 mM sodium phosphate pH 7.5, 25 °C, 0.3 mM substrate
T2 sequence (S4U6N9 1-906): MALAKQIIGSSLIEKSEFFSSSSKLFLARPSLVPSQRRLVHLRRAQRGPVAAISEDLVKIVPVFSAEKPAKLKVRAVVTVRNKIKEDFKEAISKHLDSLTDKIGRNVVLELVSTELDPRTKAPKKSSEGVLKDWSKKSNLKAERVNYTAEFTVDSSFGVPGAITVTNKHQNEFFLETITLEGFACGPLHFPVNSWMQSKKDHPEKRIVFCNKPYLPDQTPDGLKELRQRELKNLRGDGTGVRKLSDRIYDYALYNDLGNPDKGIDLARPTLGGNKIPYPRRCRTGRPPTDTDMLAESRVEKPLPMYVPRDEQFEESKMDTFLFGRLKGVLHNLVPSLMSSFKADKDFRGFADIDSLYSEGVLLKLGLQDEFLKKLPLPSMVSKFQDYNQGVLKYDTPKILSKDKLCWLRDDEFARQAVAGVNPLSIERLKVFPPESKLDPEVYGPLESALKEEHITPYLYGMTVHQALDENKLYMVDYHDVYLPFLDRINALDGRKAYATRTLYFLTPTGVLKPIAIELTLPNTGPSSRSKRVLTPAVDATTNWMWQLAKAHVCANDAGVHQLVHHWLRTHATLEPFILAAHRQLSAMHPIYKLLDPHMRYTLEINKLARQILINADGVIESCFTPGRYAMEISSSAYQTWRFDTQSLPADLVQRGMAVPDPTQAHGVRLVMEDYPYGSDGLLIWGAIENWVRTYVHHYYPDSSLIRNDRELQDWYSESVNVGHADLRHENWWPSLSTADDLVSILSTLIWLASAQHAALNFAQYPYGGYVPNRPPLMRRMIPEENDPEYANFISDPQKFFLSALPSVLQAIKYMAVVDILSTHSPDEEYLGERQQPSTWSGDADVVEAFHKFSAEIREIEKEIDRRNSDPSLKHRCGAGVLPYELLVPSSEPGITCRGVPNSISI

SMILES	HPLC product analysis (SP-HPLC, CP-HPLC) (LOX2:Md:2b (MdLOX2b))	HPLC product analysis (SP-HPLC, CP-HPLC) (LOX2:Md:2a (MdLOX2a))
CCCCC/C=C\C/C=C\CCCCCCCC(=O)O [linoleic acid]	LOX2:Md:2a and LOX2:Md:2b converted LA and LnA predominantly to 13-hydroperoxides	LOX2:Md:2a and LOX2:Md:2b converted LA and LnA predominantly to 13-hydroperoxides
CC/C=C\C/C=C\C/C=C\CCCCCCCC(=O)O [α-linolenic acid]	LOX2:Md:2a and LOX2:Md:2b converted LA and LnA predominantly to 13-hydroperoxides	LOX2:Md:2a and LOX2:Md:2b converted LA and LnA predominantly to 13-hydroperoxides
